Experiments:
Type in all cases: in vivo, human
[1] = system: nephritis patients; assay: treatment of nephritis patients, rates by traditional standard; conditions: six or more cycles, course of seven days
Text: Containing native cyclooxygenase (COX-2) doxorubicin pharmaceutical compositions of natural (atm) doxorubicin or a natural substance in the class of drugs for treating nephritis application preparation, nephritis patients diagnosed according to the usual Standard diagnosis; “effective”, “markedly”, “cure” and other standards are in accordance with the traditional standard. Dose of the drug present invention are: adult three times daily 1.8 g. Course of seven days. When six or more cycles, the treatment effect of contrast in the following table: […]

[2] = system: cancer (lymphoma) patients; assay: treatment of tumors, cancer (lymphoma) patients
Text: Containing native human cyclooxygenase (COX-2), doxorubicin natural (atm) or natural substance class doxorubicin in the preparation of a pharmaceutical composition of a medicament for the treatment of tumors, cancer (lymphoma) patients diagnosed is the usual criteria for diagnosis; “effective”, “cured”, “cure” and the like in accordance with conventional criteria standards. Dose of the drug present invention are: adult three times a day, every 1.8 go for 7 days. When eight or more cycles, the treatment effect of contrast in the following table: […]

[3] = system: general inflammation in patients; assay: general anti-inflammatory analgesic use, general inflammation patients; conditions: two or more cycles
Text: Containing native human cyclooxygenase (COX-2), doxorubicin natural (atm) or a pharmaceutical composition of doxorubicin substances of natural origin as a general anti-inflammatory analgesic drugs applied, general inflammation in patients diagnosed according to the usual criteria for diagnosis; “effective”, “cured”, “cure” and the like in accordance with conventional criteria standards. Dose of the drug present invention are: adult three times daily 1.8 g. Course of seven days When two or more cycles, the treatment effect of contrast in the following table: […]

How did the Markedly [1] turn out when `CC(C)(C)NCC(O)COc1ccccc1C#N` (stereo not drawn) [Bunitrolol] was run?
The Markedly was 59%.

What about the Effective ([1]; invention drug adult three times daily 1.8 g) of the same compound?
The Effective was 93.2%.

Which results are given for `CC(=O)O[C@H]1C(=O)[C@@]2(C)[C@H]([C@H](OC(=O)c3ccccc3)[C@]3(O)C[C@H](OC(=O)[C@H](O)[C@@H](NC(=O)c4ccccc4)c4ccccc4)C(C)=C1C3(C)C)[C@]1(OC(C)=O)CO[C@@H]1C[C@@H]2O` [Paclitaxel]?
Cure ([2]; eight or more cycles): 16.3%; Invalid ([2]; eight or more cycles): 2.3%; Markedly ([2]; eight or more cycles): 32.6%; Effective ([2]; eight or more cycles of 7 days, invention drug adult three times a day 1.8 g): 48.8%

How did the Invalid [3] turn out when `[H]/N=C(/N)N[C@H]1[C@H](O)[C@@H](O)[C@H](O[C@@H]2O[C@@H](C)[C@](O)(C=O)[C@H]2O[C@@H]2O[C@@H](CO)[C@H](O)[C@@H](O)[C@@H]2NC)[C@@H](N/C(N)=N\[H])[C@@H]1O` [Streptomycin] was run?
Its Invalid is 17.14%.

What about the Markedly [3] of the same compound?
Its Markedly is 78.57%.

And the Effective ([3]; course of seven days, invention drug adult three times daily 1.8 g)?
The Effective was 14.29%.

Source: patent US20150118214A1, “Pharmaceutical composition containing human cyclooxygenase and doxorubicin or doxorubicin analogue, preparation method therefor and use thereof in preparing drugs” (priority 2012, published 2015)
